“And” between values parts separate entries of the source, which are not always exact repeats. Identical values can stand only once.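 Step 1: Grow cells in 96-well plates. Step 2: Expose to compound for 48 hours at 5 concentrations. Step 3: Interpolate endpoints linearly; if unreached, use highest concentration. Abbreviation: GI50, concentration required for 50% inhibition of growth. TGI marks complete inhibition of growth.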
Experiments:
Assay in all cases: NCI-60 cell line screen, 48 h
[1] = system: HS 578T breast
[2] = system: CCRF-CEM leukemia
[3] = system: HL-60(TB) leukemia
[4] = system: HOP-62 NSCLC
[5] = system: SR leukemia
[6] = system: UO-31 renal
[7] = system: EKVX NSCLC
[8] = system: SNB-75 CNS

Row | SMILES | GI50 [1] [µM] | TGI [1] [µM] | GI50 [2] [µM] | TGI [2] | GI50 [3] [µM] | TGI [3] [µM] | GI50 [4] [µM] | TGI [4] [µM] | GI50 [5] [µM] | TGI [5] [µM] | GI50 [6] [µM] | TGI [6] | GI50 [7] [µM] | TGI [7] [µM] | GI50 [8] [µM] | TGI [8] [µM]
1 | Cc1ccc(C2=C(c3ccccc3)C(c3ccccc3)Oc3ccc(C)cc32)cc1 (configuration not stated) | 2.74 | 10.1 | 13.8 | 39 µM | 11 | 40.7 | 3.09 | 7.71 | 16.5 | 38.4 | 4.37 | 17 µM | 3.2 | 12.8 |  | 
2 | O=[n+]1c2ccccc2n([O-])c2cc(Cl)ccc21 | 2.95 | 21.7 | 0.533 | 5 µM | 2.07 | 4.47 | 3.15 | 10.9 | 2.19 | 7.53 | 3.52 | 15 µM |  |  | 3.18 | 15
3 | Cc1ccc(C2=Nc3c(N)ncnc3NC(c3ccc4c(c3)OCO4)C2)cc1 (configuration not stated) | 7.28 | 40 |  |  | 0.718 | > 100 | > 100 | > 100 | 0.249 | 3.85 | 10.8 | 26.5 µM | 16.2 | > 100 | 4.55 | 37.2
4 | CCc1cc2ncc(CN3CCN(c4ccc(C(=O)NC)nc4)CC3)cc2[nH]c1=O | 64 | > 100 | 97.1 | > 100 µM | 32.1 | > 100 | 55.7 | > 100 | 11.5 | > 100 | 29.5 | > 100 µM | 84.9 | > 100 | 18 | > 100
5 | Cc1[nH]c(-c2nc3ccccc3[nH]2)c(C)c1C(=O)NC(C)C1CCCCC1 (configuration not stated) | 8.88 | 30.9 | 5.49 | 21.4 µM | 3.36 | 13.1 | 12.7 | 38.3 | 4.38 | 34.5 | 11.9 | 25.6 µM | 11.4 | 23.7 | 3.62 | 16.4
6 | NCCOc1ccccc1/C=C1\c2ccccc2-c2ccc([N+](=O)[O-])cc21 | 1.72 | 3.79 | 1.08 | 2.54 µM | 1.54 | 3.07 | 1.53 | 3.18 |  |  | 1.3 | 2.61 µM | 1.55 | 2.99 | 1.28 | 2.55
7 | CN1CCN(c2nc(NCCCNc3ccnc4cc(Cl)ccc34)c3ccccc3n2)CC1 | 3.35 | 19 |  |  | 2.14 | 4.39 | 2.81 | 11.6 | 1.74 | 6.05 | 2.09 | 5.93 µM | 11.4 | 25.3 | 5.45 | 20.7
8 | Cc1ccc(C2=C(c3ccc(C)cc3)C3(c4ccc(C)cc4)C4C(=O)c5ccccc5C(=O)C4C2(c2ccc(C)cc2)S3=O)cc1 (configuration not stated) | > 100 | > 100 | > 100 | > 100 µM |  |  | 73.7 | > 100 |  |  | > 100 | > 100 µM | > 100 | > 100 | 9.93 | 31
9 | CCCCc1n(Cc2ccc3ccccc3c2)cc[n+]1Cc1ccc2ccccc2c1 |  |  | 1.52 | 4.03 µM |  |  |  |  |  |  | 1.45 | 2.96 µM |  |  | 0.908 | 2.4
10 | C/C=C/[C@H]1O[C@@H]2C(=C[C@H]1O)C(=O)O[C@H]2C | 23.3 | 49.8 |  |  | 35.7 | > 100 | 23.4 | 48.4 | 7.29 | > 100 | 7.51 | > 54.4 µM | 13.4 | 30.8 | 1.23 | 26.4
11 | C[n+]1c(-c2ccc(/C=N/NC(=O)c3ccc(C(=O)N/N=C/c4ccc(-c5cn6ccccc6[n+]5C)cc4)cc3)cc2)cn2ccccc21 | > 1000 | > 1000 | 209 | > 50 µM and 353 µM | 2.37 | 186 | 277 | 425 |  | 218 | 227 | > 73.3 µM and 955 µM | > 1000 | > 1000 |  | 
12 | COc1cc(-c2cc(/C=C/C(=O)c3ccc(Cl)c(Cl)c3)[nH]n2)cc(OC)c1OC | 16.6 | > 100 | 2.15 | 23.5 µM | 7.18 | 36.7 | 1.72 | 7.66 | 0.393 | 13.5 | 5.73 | > 100 µM |  |  |  | 
13 | Cc1cc(N2CCCC2)nc(NCc2cc(Nc3ccnc4cc(Cl)ccc34)ccc2F)n1 | 1.51 | 3.91 |  |  | 1.99 | 4.49 | 1.46 | 3.14 | 0.243 |  | 1.21 | 2.66 µM |  |  |  | 
14 | Cn1c2ccccc2c2c3[nH][nH]c(=O)c3c3c4ccccc4[nH]c3c21 | 0.993 | 5.88 | 2.89 | 10.2 µM | 2.46 | 6 | 3.11 | 10.4 |  |  | 2.68 | 24.3 µM | 2.41 | 8.1 | 0.355 | 3.53
15 | CN(C)CC(C(=O)Cc1ccccc1)c1ccccc1 (configuration not stated) | 3.16 | 9.83 |  |  | 1.83 | 5.75 | 6.87 | 21 | 1.24 | 7.55 | 1.69 | 3.32 µM | 17 | 40.5 | 2.72 | 11.5
16 | CCCCN(CCCC)CCC(O)c1cc2c(Cl)cc(Cl)cc2c2cc(C(F)(F)F)ccc12 (configuration not stated) |  |  |  | 29 µM |  | 21.8 |  | 21.9 |  | 28.9 |  | 17.4 µM |  | 29.1 |  | 25.3
17 | O=C1Nc2ccccc2/C1=C\c1nc(C2CCN(S(=O)(=O)c3ccc(F)cc3)CC2)n2ccccc12 | 1.22 | 5.78 | > 100 | > 100 µM | > 100 | > 100 | 2.06 | 6.37 | > 100 | > 100 |  |  | 4.87 | > 100 |  | 
18 | Oc1cccc(/C=N/Nc2nnc(N/N=C/c3cccc(O)c3)c3ccccc23)c1 |  | 52.9 |  | 88.3 µM |  |  |  | 33 |  | 7.06 |  | 52 µM |  | 43.6 |  | 50.5
